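Each compound was tested at five concentrations against cells in 96-well plates for 48 hours. TGI: total growth inhibition.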 *1 amine or outer side, *2 acyl side, *3 side chain or, on linkers, in order; H or OH if unused. Where a SMILES comes first, the peptide text is derived from it. Bridges are numbered along the chain shown (N, C = ends). Roman numbers before positions name the chains, in order. [ ]: non-standard residue; d: D form. ξ: configuration not given here. X54 = N=C(N)NCCC[C@@H](NC(=N)CCCCCCC(=N)N[C@H](CCCNC(=N)N)C(=O)[*:2])C(=O)[*:1]; dIgl = N[C@@H](C(=O)O)C1Cc2ccccc2C1; Hyp = O=C(O)[C@@H]1C[C@@H](O)CN1; ξIgl = NC(C(=O)O)C1Cc2ccccc2C1; ξOic = O=C(O)C1CC2CCCCC2N1; ξR = N=C(N)NCCCC(N)C(=O)O; ξP = O=C(O)C1CCCN1; ξS = NC(CO)C(=O)O
How the values were obtained:
Experiment in all cases: NCI anticancer screen, dose series, 48 h
786-0 renal = system: 786-0 renal
ACHN renal = system: ACHN renal
HOP-92 NSCLC = system: HOP-92 NSCLC
IGROV1 ovarian = system: IGROV1 ovarian
MCF7 breast = system: MCF7 breast
SW-620 colon = system: SW-620 colon
HL-60(TB) leukemia = system: HL-60(TB) leukemia
SK-MEL-2 melanoma = system: SK-MEL-2 melanoma
SNB-75 CNS = system: SNB-75 CNS
SR leukemia = system: SR leukemia

| SMILES | TGI (786-0 renal) | TGI (ACHN renal) | TGI (HOP-92 NSCLC) | TGI (IGROV1 ovarian) | TGI (MCF7 breast) | TGI (SW-620 colon) | TGI (HL-60(TB) leukemia) | TGI (SK-MEL-2 melanoma) | TGI (SNB-75 CNS) | TGI (SR leukemia) |
| --- | --- | --- | --- | --- | --- | --- | --- | --- | --- | --- |
| O=c1cc(-c2ccccc2)[nH]c2ncccc12 | > 100 µM | > 100 µM | 7.54 µM | > 100 µM | > 100 µM | > 100 µM | – | – | – | – |
| Cc1cc2nc3c(C#N)c4c(c(Nc5ccc(F)cc5)n3c2cc1C)CCC4 | > 100 µM | > 100 µM | – | > 100 µM | > 100 µM | > 100 µM | > 100 µM | > 100 µM | > 100 µM | > 100 µM |
| CN1CCN(C(=O)CCC(=O)Nc2cc3c(c4ccccc24)-c2ccc4ccccc4c2C3)CC1 | 3.13 µM | 3.78 µM | 3.36 µM | 2.74 µM | 3.03 µM | – | – | 3.65 µM | – | – |
| COc1ccccc1NC(=S)N=Nc1c(O)[nH]c2ccccc12 | > 100 µM | > 100 µM | > 100 µM | > 100 µM | > 100 µM | > 100 µM | – | > 100 µM | > 100 µM | > 100 µM |
| CCOC(=O)/C=C/C(=O)O/C=C/[N+](=O)[O-] | > 100 µM | > 100 µM | > 100 µM | > 100 µM | > 100 µM | > 100 µM | > 100 µM | – | > 100 µM | > 100 µM |
| O=c1c2c3c(sc2nc2n1N=CN(c1ccccc1)C2)CCCC3 | > 100 µM | > 100 µM | > 100 µM | > 100 µM | > 100 µM | > 100 µM | – | > 100 µM | > 100 µM | > 100 µM |
| O=C1c2ccccc2C(=O)N1n1c(Cc2ccc(Cl)cc2)n[nH]c1=O | > 100 µM | > 100 µM | > 100 µM | > 100 µM | > 100 µM | > 100 µM | – | > 100 µM | > 100 µM | > 100 µM |
| O=P(O)(O)c1ccc(-c2ccc(I)cc2)cc1 | > 100 µM | > 100 µM | – | > 100 µM | > 100 µM | > 100 µM | > 100 µM | > 100 µM | > 100 µM | > 100 µM |
| Cc1cc(=O)oc2cc(OCCCOc3ccc4c(C)cc(=O)oc4c3)ccc12 | > 100 µM | > 100 µM | – | > 100 µM | – | > 100 µM | > 100 µM | > 100 µM | > 100 µM | > 100 µM |
| O=C(CN1CCCC1=O)CS(=O)(=O)c1ccccc1 | > 100 µM | > 100 µM | – | > 100 µM | > 100 µM | > 100 µM | > 100 µM | > 100 µM | > 100 µM | > 100 µM |
| Nn1c(Nc2ccc(S(N)(=O)=O)cc2)nnc(/C=C/c2c(O)ccc3ccccc23)c1=O | 66.8 µM | > 100 µM | – | 0.942 µM | 43 µM | 45.3 µM | 28.6 µM | > 100 µM | – | 25.1 µM |
| Cc1ccc(Cc2cc(N3CCN(c4cccc(Cl)c4)CC3)nnc2C)cc1 | > 100 µM | > 100 µM | – | – | > 100 µM | > 100 µM | – | > 100 µM | > 100 µM | – |
| Cc1nnc(N)nc1/C=C\c1ccc(Cl)cc1Cl | > 100 µM | > 100 µM | > 100 µM | 39.4 µM | > 100 µM | 51.3 µM | 53 µM | 32.6 µM | – | > 100 µM |
| Cn1c(-c2ccc(-c3cc(-c4cccs4)c(-c4cccs4)n3C)cc2)cc(-c2cccs2)c1-c1cccs1 | > 100 µM | > 100 µM | – | > 100 µM | > 100 µM | > 100 µM | > 100 µM | > 100 µM | > 100 µM | > 100 µM |
| COC1=C[C@]2(CCC(=O)O2)[C@@H]2Cc3ccccc3[C@H](O)[C@@H]2C1=O | > 100 µM | > 100 µM | > 100 µM | > 100 µM | > 100 µM | 88.8 µM | 77.6 µM | 96.2 µM | – | 41.4 µM |
| COC(=O)[C@H](CC(C)C)NC(=O)[C@H](Cc1ccccc1)N1CC2C=CC1C2 (some centres undefined) | > 100 µM | > 100 µM | > 100 µM | > 100 µM | – | > 100 µM | > 100 µM | > 100 µM | > 100 µM | – |
| COc1ccc2c(c1)CC[C@@H]1C2CC[C@]2(C)C(=O)N(CCN(C)C)C(=O)CC12 (some centres undefined) | > 100 µM | > 100 µM | > 100 µM | > 100 µM | > 100 µM | > 100 µM | > 100 µM | – | > 100 µM | > 100 µM |
| CC(=O)C1=C(C)O[C@@H]2O[C@H](COCc3ccccc3)[C@@H](OCc3ccccc3)[C@H](O)[C@@H]2S1 | 60.6 µM | 52.5 µM | 44.2 µM | 40.9 µM | – | 75.5 µM | 39.7 µM | 39.1 µM | 77.1 µM | 46.1 µM |
| O=C1C=C(Nc2ccccc2C(=O)CC(=O)C(=O)Nc2ccc(Cl)cc2)c2ccccc2C1=O | 62.1 µM | 55.1 µM | > 100 µM | > 88.5 µM | – | 27 µM | > 100 µM | 34.3 µM | 36 µM | > 100 µM |
| Cc1ccccc1NC(=O)Cc1csc(N/N=C2\NC(=O)/C(=C/c3cccc([N+](=O)[O-])c3)S2)n1 | > 100 µM | 28.9 µM | 38.1 µM | 34.3 µM | > 100 µM | > 100 µM | 39.5 µM | 71.1 µM | 34 µM | – |
| CC#C[C@]1(O)CCC2[C@@H]3CCC4=CC(=O)CCC4=C3[C@@H](c3ccc(N(C)C)cc3)C[C@@]21C (some centres undefined) | 37.2 µM | > 100 µM | 8.55 µM | – | 20.8 µM | > 100 µM | 38 µM | – | – | 37.1 µM |
| N=C(N)NCCCC(NC(=O)C1CC2CCCCC2N1C(=O)[C@H](NC(=O)C(CO)NC(=O)C(NC(=O)CNC(=O)[C@@H]1C[C@@H](O)CN1C(=O)C1CCCN1C(=O)C(CCCNC(=N)N)NC(=O)[C@@H](CCCNC(=N)N)NC(=N)CCCCCCC(=N)N[C@H](CCCNC(=N)N)C(=O)NC(CCCNC(=N)N)C(=O)N1CCCC1C(=O)N1C[C@H](O)C[C@H]1C(=O)NCC(=O)NC(C(=O)NC(CO)C(=O)N[C@@H](C(=O)N1C(C(=O)NC(CCCNC(=N)N)C(=O)O)CC2CCCCC21)C1Cc2ccccc2C1)C1Cc2ccccc2C1)C1Cc2ccccc2C1)C1Cc2ccccc2C1)C(=O)O (some centres undefined) (I: [ξR][ξP][Hyp]G[ξIgl][ξS][dIgl][ξOic][ξR]-OH / II: [ξR][ξP][Hyp]G[ξIgl][ξS][dIgl][ξOic][ξR]-OH; linker I:N-II:N via X54) | 5.07 µM | 3.91 µM | 4.71 µM | > 10 µM | 4.04 µM | 6.35 µM | 0.409 µM | 6.77 µM | – | 2.95 µM |

— PubChem BioAssay (NCI)
